Source: patent US20260201283A1, “SOLVENT COMPOSITION” (Dow Global Technologies LLC, priority 2022, published 2026)
Read-outs that look alike come from different tables or passages of the source.

Columns and labels:
[1] = Solvency of solvent compositions for Monomer A and Monomer B (height of solid residue); assay type: physicochemical; details: for concentration of monomer in the final solution: in each of the samples with solvency of 100% (NMF, IE1, IE2, IE3, IE4)
Method: For every sample, the height of the monomer mixture in the vial was 4 mm. The vials were placed in an oven at 54° C. without agitation for 13 hours. The vials returned to room temperature and were photographed again with the PICA-II instrument. The height of the solid residue was observed. It is considered that the residue (if present) was undissolved Monomer A, undissolved Monomer B, or a mixture thereof. The solvency % of each solvent composition was determined as follows: […]

[2] = at 25° C., literature values as published in Wikipedia, cited from earlier work

Structure (SMILES)	Water Solubility [2]	concentration of monomer in the final solution [1]	other results
CNC=O [NMF, n-methylformamide, reference compound]	–	–	Solvency (%) ([1]; 0.125 g Monomer A + 0.125 g Monomer B in 2.5 g solvent, 54° C. without agitation for 13 hours, then room temperature): 100%; Quality as solvent for Monomer A and Monomer B ([1]; judgement in words based on Table 4): good solvent
CCCCOCCOCCO [DBE, diethylene glycol n-butyl ether]	–	–	Water Solubility ([2]; in words): soluble
OCCOc1ccccc1 [POE, 2-phenoxyethanol]	26 g/kg	–	–
Nc1ccc(-c2ccc(N)cc2C(F)(F)F)c(C(F)(F)F)c1 [Monomer B]	–	5 % by weight based on the weight of the solvent composition	–
O=C1OC(=O)c2cc(Oc3ccc4c(c3)C(=O)OC4=O)ccc21 [Monomer A]	–	5 % by weight based on the weight of the solvent composition	–
NC(N)=O [Urea]	545 mg/mL	–	–
